The source of these data is patent US8741806B2, “Herbicides” (Syngenta Limited, priority 2009, dated 2014).

What all share (type): in vivo
For experiment [1], the system named is Alopecurus myosuroides (ALOMY). As to the kind of experiment: Example A pre-emergence herbicidal activity, glasshouse pot test. The settings on record: Rate 250 g/ha, evaluated 20 days later, 100=total damage to plant, 0=no damage to plant. The protocol: (§1) Seeds of a variety of test species were sown in standard soil in pots. After cultivation for one day (pre-emergence) or after 10 days cultivation (post-emergence) under controlled conditions in a glasshouse, the plants were sprayed with an aqueous spray solution derived from the formulation of the technical active ingredient of formula I in 0.6 ml acetone and 45 ml formulation solution containing 10.6% Emulsogen EL (Registry number 61791-12-6), 42.2% N-methylpyrrolidone, 42.2% dipropylene glycol monomethyl ether (Registry number 34590-94-8) and 0.2% X-77 (Registry number 11097-66-8). The test plants were then grown in a greenhouse under optimum conditions until, 15 days later for post-emergence and 20 days for pre-emergence, the test was evaluated (100=total damage to plant; 0=no damage to plant). The compound of Example 1-8-a-1 from WO99/48869 was also sprayed for comparison. Alopecurus myosuroides (ALOMY), Avena fatua (AVEFA), Lolium perenne (LOLPE), Setaria faberi (SETFA), Digitaria sanguinalis (DIGSA), Echinochloa crus-galli (ECHCG) and Sorghum bicolor (SORVU) Pre-Emergence Activity

For experiment [2], the system named is Avena fatua (AVEFA). The experiment is described as above. The settings on record: Rate 250 g/ha, evaluated 20 days later, 100=total damage to plant, 0=no damage to plant. The protocol:
as §1

Experiment [3] deals with Digitaria sanguinalis (DIGSA). The experiment is described as above. The settings on record: Rate 250 g/ha, evaluated 20 days later, 100=total damage to plant, 0=no damage to plant. The protocol: as §1
Experiment [4] has as its system Echinochloa crus-galli (ECHCG). Described as above. The settings on record: Rate 250 g/ha, evaluated 20 days later, 100=total damage to plant, 0=no damage to plant. How it is done: as §1
Another experiment concerns Lolium perenne (LOLPE). Described as above. The settings on record: Rate 250 g/ha, evaluated 20 days later, 100=total damage to plant, 0=no damage to plant. How it is done:
as §1

The subject of experiment [5] is Setaria faberi (SETFA). Described as above. The settings on record: Rate 250 g/ha, evaluated 20 days later, 100=total damage to plant, 0=no damage to plant. How it is done:
as §1

The test system of experiment [6] is Alopecurus myosuroides (ALOMY). Briefly: Example A post-emergence herbicidal activity, glasshouse pot test. The settings on record: Rate 15 g/ha, evaluated 15 days later, 100=total damage to plant, 0=no damage to plant. The protocol:
as §1, with “Post-Emergence” for “Pre-Emergence”

Experiment [7] concerns Avena fatua (AVEFA). The description is as above. The settings on record: Rate 15 g/ha, evaluated 15 days later, 100=total damage to plant, 0=no damage to plant. The protocol: as §1, with “Post-Emergence” for “Pre-Emergence”
Experiment [8] concerns Digitaria sanguinalis (DIGSA). The description is as above. The settings on record: Rate 15 g/ha, evaluated 15 days later, 100=total damage to plant, 0=no damage to plant. How it is done: as §1, with “Post-Emergence” for “Pre-Emergence”
Experiment [9] deals with Echinochloa crus-galli (ECHCG). The description is as above. The settings on record: Rate 15 g/ha, evaluated 15 days later, 100=total damage to plant, 0=no damage to plant. How it is done:
as §1, with “Post-Emergence” for “Pre-Emergence”

For experiment [10], the system named is Setaria faberi (SETFA). The experiment is described as above. The settings on record: Rate 15 g/ha, evaluated 15 days later, 100=total damage to plant, 0=no damage to plant. The protocol: as §1, with “Post-Emergence” for “Pre-Emergence”
In the next experiment the test system is Sorghum bicolor (SORVU). The experiment is described as above. The settings on record: Rate 15 g/ha, evaluated 15 days later, 100=total damage to plant, 0=no damage to plant. How it is done: as §1, with “Post-Emergence” for “Pre-Emergence”
In experiment [11] the test system is Alopecurus myosuroides (ALOMY). As to the kind of experiment: Example B pre-emergence herbicidal activity, glasshouse pot test. The settings on record: 312 h, rate 250 g/ha, evaluated after 13 days, scale 0-100, read-out: Pre-emergence activity ALOMY (100=total damage to plant; 0=no damage to plant). The gist of the method:
(§2)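 Pots were sprayed one day after sowing with the active ingredient in acetone/water (50:50) containing 0.5% Tween 20. Plants were kept in a glasshouse at 24/16° C day/night, 14 h light, 65% humidity. Damage was scored 13 days later (0 none to 100 total).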

Experiment [12] concerns Avena fatua (AVEFA). The description is as above. The settings on record: 312 h, rate 250 g/ha, evaluated after 13 days, scale 0-100, read-out: Pre-emergence activity AVEFA (100=total damage to plant; 0=no damage to plant). The gist of the method:
as §2

The test system of experiment [13] is Echinochloa crus-galli (ECHCG). The experiment is described as above. The settings on record: 312 h, rate 250 g/ha, evaluated after 13 days, scale 0-100, read-out: Pre-emergence activity ECHCG (100=total damage to plant; 0=no damage to plant). The gist of the method:
as §2

The test system of experiment [14] is Setaria faberi (SETFA). The experiment is described as above. The settings on record: rate 250 g/ha, evaluated after 13 days, scale 0-100. Summed up:
as §2

Experiment [15] concerns Alopecurus myosuroides (ALOMY). Briefly: Example B post-emergence herbicidal activity, glasshouse pot test. The settings on record: 312 h, rate 250 g/ha, evaluated after 13 days, scale 0-100, read-out: Post-emergence activity ALOMY (100=total damage to plant; 0=no damage to plant). The gist of the method:
(§3)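 Seeds sown in standard soil, grown 8 days in glasshouse (24/16 °C day/night, 14 h light, 65% humidity), then sprayed post-emergence with compound in acetone/water (50:50) containing 0.5% Tween 20. Damage scored visually after 13 days on a 0–100 scale (100 = total damage).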

For experiment [16], the system named is Avena fatua (AVEFA). The experiment is described as above. The settings on record: 312 h, rate 250 g/ha, evaluated after 13 days, scale 0-100, read-out: Post-emergence activity AVEFA (100=total damage to plant; 0=no damage to plant). The gist of the method:
as §3

For experiment [17], the system named is Echinochloa crus-galli (ECHCG). Described as above. The settings on record: 312 h, rate 250 g/ha, evaluated after 13 days, scale 0-100, read-out: Post-emergence activity ECHCG (100=total damage to plant; 0=no damage to plant). The gist of the method: as §3
For experiment [18], the system named is Setaria faberi (SETFA). Described as above. The settings on record: rate 250 g/ha, evaluated after 13 days, scale 0-100. The gist of the method: as §3

`CCc1ccc(-c2ccc(Cl)cc2)cc1C1=C(O)CCCC1=O` [Compound T2]: the “Pre-Emergence Activity ALOMY (damage to plant)” value in experiment [1] is listed as 60. Moreover, in the experiment on Avena fatua (AVEFA) [2], the “Pre-Emergence Activity AVEFA (damage to plant)” value amounted to 70. In addition, the “Pre-Emergence Activity DIGSA (damage to plant)” value in [3] is 80. Besides, in experiment [4], the “Pre-Emergence Activity ECHCG (damage to plant)” value is 100. For the same compound, the “Pre-Emergence Activity LOLPE (damage to plant)” value with Lolium perenne (LOLPE) worked out at 70. For the same compound, in the experiment on Setaria faberi (SETFA) [5], the “Pre-Emergence Activity SETFA (damage to plant)” value turned out to be 80. In addition, in experiment [6], the “Post-Emergence Activity ALOMY (damage to plant)” value was 0. The “Post-Emergence Activity AVEFA (damage to plant)” value in the experiment on Avena fatua (AVEFA) [7] is 0. The “Post-Emergence Activity DIGSA (damage to plant)” value in experiment [8] was 80. In addition, the “Post-Emergence Activity ECHCG (damage to plant)” value in experiment [9] was found to be 90. For the same compound, the “Post-Emergence Activity SETFA (damage to plant)” value with Setaria faberi (SETFA) [10] was determined as 80. Moreover, in the experiment on Sorghum bicolor (SORVU), the “Post-Emergence Activity SORVU (damage to plant)” value came out at 70. Besides, the pest or weed control at 250 g/ha in experiment [11] was determined as 40%; with Avena fatua (AVEFA) [12] it was 40%; in experiment [13], 100%; in experiment [15] it was 90%; with Avena fatua (AVEFA) [16] it was 80%; in experiment [17] it was 100%. In addition, in the experiment with Setaria faberi (SETFA) [14], the “Pre-emergence activity SETFA (100=total damage to plant; 0=no damage to plant)” value is listed as 100. For the same compound, the “Post-emergence activity SETFA (100=total damage to plant; 0=no damage to plant)” value in the experiment on Setaria faberi (SETFA) [18] is 100.

For the compound `CCc1ccc(-c2ccc(Cl)cc2)cc1C1=C(O)CC(C)(C)CC1=O` [Compound T3], the “Pre-Emergence Activity ALOMY (damage to plant)” value in experiment [1] was 90. Besides, the “Pre-Emergence Activity AVEFA (damage to plant)” value in the experiment on Avena fatua (AVEFA) [2] turned out to be 50. Further, in experiment [3], the “Pre-Emergence Activity DIGSA (damage to plant)” value stood at 100. The “Pre-Emergence Activity ECHCG (damage to plant)” value in experiment [4] is reported as 100. In the experiment on Lolium perenne (LOLPE), the “Pre-Emergence Activity LOLPE (damage to plant)” value worked out at 100. For the same compound, in the experiment with Setaria faberi (SETFA) [5], the “Pre-Emergence Activity SETFA (damage to plant)” value is 80. For the same compound, in experiment [6], the “Post-Emergence Activity ALOMY (damage to plant)” value is recorded as 50. Also, the “Post-Emergence Activity AVEFA (damage to plant)” value in the experiment on Avena fatua (AVEFA) [7] stood at 20. Moreover, in [8], the “Post-Emergence Activity DIGSA (damage to plant)” value is recorded as 70. The “Post-Emergence Activity ECHCG (damage to plant)” value in experiment [9] is given as 70. Also, the “Post-Emergence Activity SETFA (damage to plant)” value in the experiment on Setaria faberi (SETFA) [10] is reported as 70. Besides, in the experiment with Sorghum bicolor (SORVU), the “Post-Emergence Activity SORVU (damage to plant)” value came to 70. The pest or weed control at 250 g/ha in [11] worked out at 60%; in the experiment with Avena fatua (AVEFA) [12], 20%; in [13], 100%; in experiment [15], 100%; with Avena fatua (AVEFA) [16], 20%; in [17], 100%. Moreover, in the experiment on Setaria faberi (SETFA) [14], the “Pre-emergence activity SETFA (100=total damage to plant; 0=no damage to plant)” value came out at 100. In the experiment on Setaria faberi (SETFA) [18], the “Post-emergence activity SETFA (100=total damage to plant; 0=no damage to plant)” value was 100.
